Results reported in patent US10494366B2, “Pesticidally active amide heterocyclic derivatives with sulphur containing substituents” (Syngenta Participations AG, priority 2014, dated 2019).

How the values were obtained:
Type in all cases: in vivo
[1] = test system: Spodoptera littoralis (Egyptian cotton leaf worm); assay: Example B1: Spodoptera littoralis, sprayed cotton leaf discs; settings: foliar, 72 h, application rate 200 ppm, L1 larvae, 3 days after infestation, read-out: control in at least one of the three categories (mortality, anti-feedancy or growth inhibition)
Protocol: Cotton leaf discs were placed on agar in 24-well microtiter plates and sprayed with aqueous test solutions prepared from 10,000 ppm DMSO stock solutions. After drying the leaf discs were infested with five L1 larvae. The samples were assessed for mortality, anti-feedant effect, and growth inhibition in comparison to untreated samples 3 days after infestation. Control of Spodoptera littoralis by a test sample is when at least one of mortality, anti-feedant effect, and growth inhibition is higher than the untreated sample.

[2] = test system: Plutella xylostella (diamond back moth); assay: Example B3: Plutella xylostella, treated artificial diet; settings: 120 h, application rate 200 ppm, L2 larvae, 5 days after infestation, read-out: effect in at least one of the two categories (mortality or growth inhibition)
Protocol: (§1) 24-well microtiter plates with artificial diet were treated with aqueous test solutions prepared from 10,000 ppm DMSO stock solutions by pipetting. After drying, the plates were infested with L2 larvae (10 to 15 per well). The samples were assessed for mortality and growth inhibition in comparison to untreated samples 5 days after infestation.

[3] = test system: Diabrotica balteata (corn root worm); assay: Example B4: Diabrotica balteata, sprayed maize sprouts; settings: 96 h, application rate 200 ppm, L2 larvae, 4 days after infestation, read-out: effect in at least one of the two categories (mortality or growth inhibition)
Protocol: as §1, with “Maize sprouts, placed on an agar layer in 24-well” for “24-well”, “plates” for “plates with artificial diet”, “spraying.” for “pipetting.”, “(6” for “(10”, “10” for “15”, “4” for “5”

[4] = test system: Spodoptera littoralis (Egyptian cotton leaf worm); assay: Example B2: Spodoptera littoralis, systemic test via lettuce roots in agar; settings: 144 h, application rate 12.5 ppm, Spodoptera eggs, 6 days after infestation, read-out: control in at least one of the three categories (mortality, anti-feedancy or growth inhibition)
Description: Test compounds were applied by pipette from 10,000 ppm DMSO stock solutions into 24-well plates and mixed with agar. Lettuce seeds were placed on the agar and the multi well plate was closed by another plate which contains also agar. After 7 days the roots have absorbed the compound and the lettuce has grown into the lid plate. The lettuce leafs were now cut off into the lid plate. Spodoptera eggs were pipetted through a plastic stencil on a humid gel blotting paper and the plate closed with it. The samples were assessed for mortality, anti-feedant effect and growth inhibition in comparison to untreated samples 6 days after infestation.
The following compounds gave an effect of at least 80% control in at least one of the three categories (mortality, anti-feedancy or growth inhibition) at an application rate of 12.5 ppm: P2, P3, P8, P9, P11 and P17, P19, P20, P22, P23, P25, P26, P28, P30, P31, P32, P33, P40, P42, P43, P44, P45, P46, P47, P48, P49, P50, P51, P52, P53, P54, P60 and P61.

[5] = test system: Euschistus heros (neotropical brown stink bug); assay: Example B6: Euschistus heros, sprayed soybean leaf; settings: 120 h, application rate 200 ppm, N-2 nymphs, 5 days after infestation
Description: Soybean leaf on agar in 24-well microtiter plates were sprayed with aqueous test solutions prepared from 10,000 ppm DMSO stock solutions. After drying the leaf were infested with N-2 nymphs.

CCS(=O)(=O)c1ccc(-c2cnc(C(=O)/N=c3\sc(C(F)(F)F)nn3C)c(S(=O)(=O)CC)c2)cc1 [Compound P4]
≥ 80%: percent control (mortality, anti-feedant effect or growth inhibition) at 200 ppm [1] | percent effect (mortality or growth inhibition) at 200 ppm [2] | percent effect (mortality or growth inhibition) at 200 ppm [3]

CCS(=O)(=O)c1cc(-n2ccc(C(F)(F)F)n2)cnc1C(=O)/N=c1\sc(C(F)(F)C(F)(F)F)nn1C [Compound P9, (N)-3-ethylsulfonyl-N-[3-methyl-5-(1,1,2,2,2-pentafluoroethyl)-1,3,4-thiadiazol-2-ylidene]-5-[3-(trifluoromethyl)pyrazol-1-yl]pyridine-2-carboxamide]
≥ 80%: percent control (mortality, anti-feedant effect or growth inhibition) at 12.5 ppm [4] | percent control (mortality, anti-feedant effect or growth inhibition) at 200 ppm [1] | percent effect (mortality or growth inhibition) at 200 ppm [2] | percent effect (mortality or growth inhibition) at 200 ppm [3]

CCSc1cc(-c2ccc(Cl)cc2)cnc1C(=O)/N=c1\sc(C(F)(F)C(F)(F)F)nn1C [Compound P12]
≥ 80%: percent effect (mortality or growth inhibition) at 200 ppm [3]

CCSc1cc(-n2ccc(C(F)(F)F)n2)cnc1C(=O)/N=c1\sc(C(F)(F)F)nn1C [Compound P13]
≥ 80%: percent effect (mortality or growth inhibition) at 200 ppm [3]

CCS(=O)(=O)c1cc(-n2ccc(C(F)(F)F)n2)cnc1C(=O)/N=c1\sc(C(F)(F)F)nn1C [Compound P14]
≥ 80%: percent control (mortality, anti-feedant effect or growth inhibition) at 200 ppm [1] | percent effect (mortality or growth inhibition) at 200 ppm [2] | percent effect (mortality or growth inhibition) at 200 ppm [3]

CCSc1cc(-c2ccc(C(F)(F)F)cc2)cnc1C(=O)N=c1ccc(SC(F)(F)F)cn1C [Compound P15]
≥ 80%: percent effect (mortality or growth inhibition) at 200 ppm [3]

CCS(=O)(=O)c1ccc(-c2ccc(C(F)(F)F)cc2)nc1C(=O)/N=c1\sc(C(F)(F)F)nn1C [Compound P21, (N)-3-ethylsulfonyl-N-[3-methyl-5-(trifluoromethyl)-1,3,4-thiadiazol-2-ylidene]-6-[4-(trifluoromethyl)phenyl]pyridine-2-carboxamide]
≥ 80%: percent control (mortality, anti-feedant effect or growth inhibition) at 200 ppm [1]

CCS(=O)(=O)c1cc(-c2ccc(OC(F)(F)F)cc2)cnc1C(=O)/N=c1\sc(C(F)(F)F)nn1C [Compound P22]
≥ 80%: percent control (mortality, anti-feedant effect or growth inhibition) at 12.5 ppm [4] | percent control (mortality, anti-feedant effect or growth inhibition) at 200 ppm [1] | percent effect (mortality or growth inhibition) at 200 ppm [2] | percent effect (mortality or growth inhibition) at 200 ppm [3]

CCS(=O)(=O)c1cc(-c2cccc(C#N)c2)cnc1C(=O)/N=c1\sc(C(F)(F)F)nn1C [Compound P23]
≥ 80%: percent control (mortality, anti-feedant effect or growth inhibition) at 12.5 ppm [4] | percent control (mortality, anti-feedant effect or growth inhibition) at 200 ppm [1] | percent effect (mortality or growth inhibition) at 200 ppm [2] | mortality at 200 ppm [5] | percent effect (mortality or growth inhibition) at 200 ppm [3]

CCS(=O)(=O)c1cc(-c2cc(Cl)cc(Cl)c2)cnc1C(=O)/N=c1\sc(C(F)(F)F)nn1C [Compound P24]
≥ 80%: percent control (mortality, anti-feedant effect or growth inhibition) at 200 ppm [1]

CCS(=O)(=O)c1cc(-c2ccc(F)cc2F)cnc1C(=O)/N=c1\sc(C(F)(F)F)nn1C [Compound P25]
≥ 80%: percent control (mortality, anti-feedant effect or growth inhibition) at 12.5 ppm [4] | percent control (mortality, anti-feedant effect or growth inhibition) at 200 ppm [1] | percent effect (mortality or growth inhibition) at 200 ppm [2] | mortality at 200 ppm [5] | percent effect (mortality or growth inhibition) at 200 ppm [3]

CCS(=O)(=O)c1cc(-c2cccc(F)c2)cnc1C(=O)/N=c1\sc(C(F)(F)F)nn1C [Compound P26]
≥ 80%: percent control (mortality, anti-feedant effect or growth inhibition) at 12.5 ppm [4] | percent control (mortality, anti-feedant effect or growth inhibition) at 200 ppm [1] | percent effect (mortality or growth inhibition) at 200 ppm [2] | mortality at 200 ppm [5] | percent effect (mortality or growth inhibition) at 200 ppm [3]

CCS(=O)(=O)c1cc(-c2cc(Cl)c(F)c(Cl)c2)cnc1C(=O)/N=c1\sc(C(F)(F)F)nn1C [Compound P27]
≥ 80%: percent control (mortality, anti-feedant effect or growth inhibition) at 200 ppm [1] | percent effect (mortality or growth inhibition) at 200 ppm [2] | percent effect (mortality or growth inhibition) at 200 ppm [3]

CCS(=O)(=O)c1cc(-c2ccc(C#N)cc2)cnc1C(=O)/N=c1\sc(C(F)(F)F)nn1C [Compound P28]
≥ 80%: percent control (mortality, anti-feedant effect or growth inhibition) at 12.5 ppm [4] | percent control (mortality, anti-feedant effect or growth inhibition) at 200 ppm [1] | percent effect (mortality or growth inhibition) at 200 ppm [2] | mortality at 200 ppm [5] | percent effect (mortality or growth inhibition) at 200 ppm [3]

CCS(=O)(=O)c1cc(-c2cccc(SC)c2)cnc1C(=O)/N=c1\sc(C(F)(F)F)nn1C [Compound P30]
≥ 80%: percent control (mortality, anti-feedant effect or growth inhibition) at 12.5 ppm [4] | percent effect (mortality or growth inhibition) at 200 ppm [3]

CCS(=O)(=O)c1cc(-c2ccc(F)cc2)cnc1C(=O)/N=c1\sc(C(F)(F)F)nn1C [Compound P32]
≥ 80%: percent control (mortality, anti-feedant effect or growth inhibition) at 12.5 ppm [4] | percent control (mortality, anti-feedant effect or growth inhibition) at 200 ppm [1] | percent effect (mortality or growth inhibition) at 200 ppm [2] | mortality at 200 ppm [5] | percent effect (mortality or growth inhibition) at 200 ppm [3]

CCS(=O)(=O)c1cc(-c2ccc(Cl)cc2Cl)cnc1C(=O)/N=c1\sc(C(F)(F)F)nn1C [Compound P34]
≥ 80%: percent control (mortality, anti-feedant effect or growth inhibition) at 200 ppm [1] | percent effect (mortality or growth inhibition) at 200 ppm [2] | mortality at 200 ppm [5] | percent effect (mortality or growth inhibition) at 200 ppm [3]

CCS(=O)(=O)c1cc(-c2cc(F)cc(F)c2)cnc1C(=O)/N=c1\sc(C(F)(F)F)nn1C [Compound P35]
≥ 80%: percent control (mortality, anti-feedant effect or growth inhibition) at 200 ppm [1] | percent effect (mortality or growth inhibition) at 200 ppm [2] | percent effect (mortality or growth inhibition) at 200 ppm [3]

CCS(=O)(=O)c1cc(-c2ccc(Cl)c(Cl)c2)cnc1C(=O)/N=c1\sc(C(F)(F)F)nn1C [Compound P36]
≥ 80%: percent control (mortality, anti-feedant effect or growth inhibition) at 200 ppm [1] | percent effect (mortality or growth inhibition) at 200 ppm [2] | percent effect (mortality or growth inhibition) at 200 ppm [3]

CCS(=O)(=O)c1cc(-c2cccc(C(F)(F)F)c2)cnc1C(=O)/N=c1\sc(C(F)(F)F)nn1C [Compound P37]
≥ 80%: percent control (mortality, anti-feedant effect or growth inhibition) at 200 ppm [1] | percent effect (mortality or growth inhibition) at 200 ppm [2] | percent effect (mortality or growth inhibition) at 200 ppm [3]

CCS(=O)(=O)c1cc(-c2ccc(SC)cc2)cnc1C(=O)/N=c1\sc(C(F)(F)F)nn1C [Compound P38]
≥ 80%: percent control (mortality, anti-feedant effect or growth inhibition) at 200 ppm [1] | percent effect (mortality or growth inhibition) at 200 ppm [2] | percent effect (mortality or growth inhibition) at 200 ppm [3]

CCS(=O)(=O)c1cc(-c2cc(Cl)ccn2)cnc1C(=O)/N=c1\sc(C(F)(F)F)nn1C [Compound P41]
≥ 80%: percent control (mortality, anti-feedant effect or growth inhibition) at 200 ppm [1] | percent effect (mortality or growth inhibition) at 200 ppm [2] | mortality at 200 ppm [5] | percent effect (mortality or growth inhibition) at 200 ppm [3]

CCS(=O)(=O)c1cc(-c2ncc(C(F)(F)F)s2)cnc1C(=O)/N=c1\sc(C(F)(F)F)nn1C [Compound P58]
≥ 80%: percent control (mortality, anti-feedant effect or growth inhibition) at 200 ppm [1] | percent effect (mortality or growth inhibition) at 200 ppm [3]

CCS(=O)(=O)c1cc(-c2cc(C#N)ccn2)cnc1C(=O)/N=c1\sc(C(F)(F)F)nn1C [Compound P62]
≥ 80%: percent control (mortality, anti-feedant effect or growth inhibition) at 200 ppm [1] | percent effect (mortality or growth inhibition) at 200 ppm [2] | mortality at 200 ppm [5]

CCS(=O)(=O)c1cc(-c2ncc(Cl)cn2)cnc1C(=O)/N=c1\sc(C(F)(F)F)nn1C [Compound P65]
≥ 80%: percent control (mortality, anti-feedant effect or growth inhibition) at 200 ppm [1] | percent effect (mortality or growth inhibition) at 200 ppm [2] | mortality at 200 ppm [5] | percent effect (mortality or growth inhibition) at 200 ppm [3]

CCS(=O)(=O)c1cc(-c2cc(F)cc(F)c2)cnc1C(=O)/N=c1\sc(C(F)(F)C(F)(F)F)nn1C [Compound P67]
≥ 80%: percent effect (mortality or growth inhibition) at 200 ppm [2] | mortality at 200 ppm [5] | percent effect (mortality or growth inhibition) at 200 ppm [3]

CCS(=O)(=O)c1cc(-c2ncc(C#N)cn2)cnc1C(=O)/N=c1\sc(C(F)(F)F)nn1C [Compound P68]
≥ 80%: percent effect (mortality or growth inhibition) at 200 ppm [2] | mortality at 200 ppm [5] | percent effect (mortality or growth inhibition) at 200 ppm [3]

CCS(=O)(=O)c1cc(-c2ccc(C#N)cn2)cnc1C(=O)/N=c1\sc(C(F)(F)F)nn1C [Compound P69]
≥ 80%: percent control (mortality, anti-feedant effect or growth inhibition) at 200 ppm [1] | percent effect (mortality or growth inhibition) at 200 ppm [2] | mortality at 200 ppm [5] | percent effect (mortality or growth inhibition) at 200 ppm [3]
